Test results taken from patent US6444870B1, “Methods for assessing the role of calcineurin immunosuppression and neurotoxicity” (President and Fellows of Harvard College, priority 1995, dated 2002).

Key:
T cells = assay: Mitogenic stimulation of T cells: proliferation and IL-2 and IL-4 production, drug sensitivity; type: cell-based, mouse
Text: We tested the responses of the wild type and mutant T cells to mitogenic stimulation with phorbol 12-myristate 13 acetate (PMA) plus ionomycin, concanavalin A (ConA), and anti-CD3ε antibodies. All three mitogens induced the CNAα^−/− T cells to proliferate as rapidly as the wild type T-cells. Further, stimulated mutant and wild type T cells produced the same amounts of IL-2 and IL-4 and expressed normal level of IL-2 receptor on the surface. Thus, CNAα^−/− T cells appeared to be functional when stimulated by mitogens in vitro.
We tested the drug sensitivity of the CNAα^−/− T cells. […] CNA^−/− T cells were even more sensitive to these drugs than normal T cells, with a IC50 of 2-7 fold lower than that of the wild type T cells.

calcineurin = assay: Calcineurin phosphatase assay in T cell extracts (okadaic acid resistant, EGTA-sensitive phosphatase activity); type: biochemical, mouse
Experimental: Spleen and lymph nodes were harvested from wild type and mutant mice and were dispersed into single cell suspension. Red blood cells were removed by lysis. The final concentrations were adjusted to 1.5-2.0×10^8 cells suspended in 2 ml of PBS containing 5% fetal calf serum and 4 mM EDTA. The cell suspensions were enriched for T cells using Mouse T Cell Enrichment Column (R&D Systems). T cells were then lysed with lysis buffer containing 50 mM Tris-HCl, pH 7.5, 15% glycerol, 0.1 mM EGTA, 1 mM EDTA, 0.5 mM DTT, […] PMSF, 50 μg/ml soybean trypsin inhibitor, 5 μg/ml aprotinin, 5 μg/ml leupeptin. Aliquots of 8×10^6 cells per 50 μl of lysis buffer were frozen until further analysis.
The phosphatase assay is a modified version of a previously described procedure (Manalan and Klee, 1983; Liu, 1991). The reaction mixture (total volume 60 μl) contained 50 mM MES (pH6.0), 100 mM NaCl, 6 mM Mg(OAc)2, […], […] (Fraction V), […] okadaic acid (Calbiochem), […] [^33P] RII peptide (600 cpm/pmole), and T cell or brain extract. […] of the terminated reaction mixture was applied per well, washed and counted in a Top-Count scintillation counter (Packard Instrument Co.). […]
Residual calcineurin activity, (i.e., okadaic acid resistant and EGTA-sensitive phosphatase activity) was measured in the same CNAα^−/− T cell extracts (Martin and Wiederrecht, in press). […]

FK506
proliferation and lymphokine production of CNAα−/− T cells, inhibitability (T cells; CNAα−/− T cells): fully inhibitable
inhibition of T cells as measured by proliferation and by IL-2 and IL-4 production (T cells; CNAα−/− and wild type T cells stimulated with PMA plus ionomycin, ConA, or αCD3ε antibody): inhibited
inhibition of (residual) calcineurin phosphatase activity (calcineurin; CNAα−/− mutant T cell extracts): 90-95%
inhibition of calcineurin phosphatase activity (calcineurin; wild type T cell extracts): 90-95%
